In EP4653424A1, “PYRIDAZINONE PARP INHIBITOR, AND PREPARATION METHOD THEREFOR, AND PHARMACEUTICAL COMPOSITION AND USE THEREOF” (China Pharmaceutical University, priority 2023, dated 2024):

Key:
[1] = biological target: T1, PARP7 enzyme (Homo sapiens, UniProt Q7Z3E1); test: PARP7 Chemiluminescent Assay Kit enzyme inhibition assay; format: biochemical; conditions: for inhibition at 0.1 µM: compound at 100 nM
T1 construct: purchased BPS Bioscience
T1 sequence (Q7Z3E1 1-657): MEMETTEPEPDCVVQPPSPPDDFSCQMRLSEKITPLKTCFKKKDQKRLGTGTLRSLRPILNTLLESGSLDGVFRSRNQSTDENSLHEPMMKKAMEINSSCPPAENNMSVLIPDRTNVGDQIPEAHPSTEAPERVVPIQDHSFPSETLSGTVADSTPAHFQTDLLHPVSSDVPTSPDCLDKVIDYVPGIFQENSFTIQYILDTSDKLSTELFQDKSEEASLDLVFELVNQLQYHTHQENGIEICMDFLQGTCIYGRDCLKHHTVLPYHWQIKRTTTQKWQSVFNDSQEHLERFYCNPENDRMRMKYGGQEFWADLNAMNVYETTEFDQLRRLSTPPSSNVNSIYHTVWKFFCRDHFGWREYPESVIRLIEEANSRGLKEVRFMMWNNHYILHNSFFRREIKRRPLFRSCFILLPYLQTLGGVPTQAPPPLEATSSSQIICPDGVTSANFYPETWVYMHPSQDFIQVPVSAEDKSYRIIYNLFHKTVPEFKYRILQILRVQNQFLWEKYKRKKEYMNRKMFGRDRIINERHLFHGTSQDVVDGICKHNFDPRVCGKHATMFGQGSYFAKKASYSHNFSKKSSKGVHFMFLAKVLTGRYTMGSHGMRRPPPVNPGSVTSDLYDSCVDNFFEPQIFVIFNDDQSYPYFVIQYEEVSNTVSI
Description: Example 60: Inhibitory activity of compounds against PARP7 enzyme
Materials: PARP7 Chemiluminescent Assay Kit, BPS Bioscience; DMSO, Sinopharm, Nivo, PerkinElmer.
Preparation of 10× PBS: 720 mg of KH2PO4, 45 g of NaCl, and 5.311 g of Na2HPO4·12H2O were dissolved in 500 mL of deionized water. The system was adjusted to pH 7.4, sterilized at 121 °C for 30 min, and cooled, and then preserved at 4 °C for later use.
Preparation of 1 × PBS: 10× PBS was diluted 10-fold with deionized water, i.e., 1 part of 10× PBS was diluted with 9 parts of deionized water.
Preparation of wash buffer: 1 × PBS containing 0.05% Tween-20.
Preparation of 1 × PARP buffer: (prepared right before use) 10× PARP buffer was diluted 10-fold with deionized water and placed on ice for later use.
According to the study requirements, the test compound was diluted to the desired concentration with 100% DMSO, and then diluted 10-fold with 1× PARP buffer to give a 10× compound working solution.
• a. 5× histone mixture was thawed on ice the day before the study; • b. 1× histone mixture was prepared by diluting 5× histone mixture into 1× histone mixture with 1× PBS; 25 µL of 1× histone mixture was added to each well of the test plate and incubated overnight at 4 °C; • c. 100 µL of the blocking buffer was taken per well and added to the test plate, and the plate was incubated at 25 °C for 90 min; • d. After the incubation was completed, the liquid in the test plate was discarded, and the plate was washed 3 times; • e. 2.5 µL of compound working solution was taken from each well and added to the test plate according to the experimental layout; a corresponding volume of 1× PARP buffer containing 10% DMSO was added to the positive control wells (Positive control), and a corresponding volume of 1× PARP buffer was added to the blank control wells (Blank); • f. After the enzyme was completely dissolved, the enzyme stock solution was diluted to 6 ng/µL with 1× PARP buffer; • g. The enzyme solution was added to a test well plate at 10 µL/well, and a corresponding volume of 1× PARP buffer was added to the blank control wells, where the enzyme amount was 60 ng/well. Note: this procedure should be performed on ice; • h. […] ELISA ECL Substrate A and ELISA ECL Substrate B in the kit were mixed in a ratio of 1:1, the mixed solution was added to the test plate at 50 µL/well, luminescence detection was immediately performed using Nivo, and the luminescence value (RLU) was read; • m. […] Enzyme inhibition = 1 - % Enzyme Activity; the IC 50 was calculated using GraphPad Prism 8.

[2] = Caco-2 bidirectional (ABBA) permeability assay; format: in vitro ADME; conditions: human, Caco-2
Description: (§1) Materials: test compounds I-A-1, I-A-2, and RBN-2397.
(§2) • (1) Caco-2 cell plating • 1. 600 µL of cell culture medium and 100 µL of cell culture medium were added to the wells of […], respectively; • 2. Before cell inoculation, Transwell was pre-incubated at 37 °C and 5% CO2 for 1 h; • 3. 100 µL of cell suspension (4 × 10^5 cells/mL) was seeded into the culture medium and cultured at 37 °C, 5% CO2, and 95% relative humidity for 14-21 days; • 4. The cell culture medium was replaced once every other day in the first 7 days, and once every day after day 7; • 5. The transepithelial electrical resistance (TEER) of the monolayer membrane was measured using EVOM3. • (2) ABBA process • 1. The plate was washed twice with pre-heated HBSS (10 mM HEPES, pH 7.4) and then incubated at 37 °C for 30 min. • 2. Test compounds were prepared in 1 mM DMSO and diluted 200-fold to 5 µM with HBSS (10 mM HEPES, pH 7.4) and HBSS (100 µM Lucifer Yellow, 10 mM HEPES, pH 7.4). • 3. Apical to basal direction: 200 µL of 5 µM working solution (100 µM Lucifer Yellow) was added to the apical compartment, and 600 µL of HBSS (10 mM HEPES, pH 7.4) was added to the basal compartment. • 4. Basal to apical direction: 600 µL of 5 µM working solution was added to the basal compartment, and 200 µL of HBSS (100 µM Lucifer Yellow, 10 mM HEPES, pH 7.4) was added to the apical compartment. • 5. 100 µL of 5 µM working solution was transferred to a sample plate containing 400 µL of cold methanol, and IS* was C0. • 6. The cell plate was incubated at 37 °C, 5% CO2, and 95% relative humidity for 2 h. • 7. 5 µL of the working solution was transferred from the apical compartment and the basal compartment to the plate. After 0.5 h of incubation, the 427 nm excitation values and 536 nm emission values were read by the Lucifer Yellow leakage detector. • 8. After 2 h of incubation, 100 µL of the solution was transferred from the apical and basal compartments with IS* to a sample plate containing 400 µL of cold methanol. • 9. The sample plate was centrifuged at 3220 g for 40 min. • 10. 100 µL of the supernatant was transferred to an assay plate containing an appropriate volume of water for LC-MS/MS analysis. • (3) Calculation
(§3) The apparent permeability coefficient (Papp, cm/s) and the efflux ratio were calculated using Microsoft Excel. Papp = (VA × Cacceptor × 100)/(Area × Time × Cinitial,donor) [formula] Efflux Ratio = (Papp(B−A))/(Papp(A−B)) [formula] Table 3. Physicochemical properties of test compounds

[3] = tested on: Caco-2 cell; test: Caco-2 bidirectional (ABBA) permeability assay; format: in vitro ADME
Description: as §1, §2, §3

## O=c1[nH]ncc(NCC#Cc2ccccc2C(F)(F)F)c1C(F)(F)F [I-A-1, 4-trifluoromethyl-5-((3-(2-(trifluoromethyl)phenyl)prop-2-yn-1-yl)amino)pyridazin-3(2 H)-one]
[1]
  IC50: < 100 nM
  inhibition at 0.1 µM: ≥ 50%
[2]; Papp(B-A)/Papp(A-B)
  efflux ratio at 2 h, 5 µM: 0.52
[2]; apical to basal, 5 µM, 2 h
  Papp A→B at 2 h, 5 µM: 39.9 ×10⁻⁶ cm/s
[2]; basal to apical, 5 µM, 2 h
  Papp B→A at 2 h, 5 µM: 20.9 ×10⁻⁶ cm/s
[3]; Caco-2, summary in words
  efflux ratio: lower efflux ratio
  membrane permeability: better membrane permeability

## O=C(CCNc1cn[nH]c(=O)c1C(F)(F)F)c1ccccc1 [I-D-1, 5-((3-oxo-3-phenylpropyl)amino)-4-(trifluoromethyl)pyridazin-3(2 H)-one]
[1]
  IC50: < 100 nM
  inhibition at 0.1 µM: ≥ 50%

## C[C@@H](COCCC(=O)N1CCN(c2ncc(C(F)(F)F)cn2)CC1)Nc1cn[nH]c(=O)c1C(F)(F)F [RBN-2397, reference compound]
[3]; Caco-2, summary in words
  membrane permeability: poor membrane permeability
[3]; Papp(B-A)/Papp(A-B), Caco-2
  efflux ratio: 5.9
[3]; apical to basal, 5 µM, 2 h, Caco-2
  PappA→B (1E-6 cm/s): 4.1 1E-6 cm/s
[3]; basal to apical, 5 µM, 2 h, Caco-2
  PappB→A (1E-6 cm/s): 24 1E-6 cm/s
